Here are results for 1 compound from ChEMBL document CHEMBL3997763 (Medchemcomm, 2016).

Calls of active or inactive are those of the source. The rule behind the calls is not given here.

Series [1] has as its target T1, 3-hydroxy-3-methylglutaryl-coenzyme A reductase (Homo sapiens) (UniProt P04035).
T1 sequence (whole entry): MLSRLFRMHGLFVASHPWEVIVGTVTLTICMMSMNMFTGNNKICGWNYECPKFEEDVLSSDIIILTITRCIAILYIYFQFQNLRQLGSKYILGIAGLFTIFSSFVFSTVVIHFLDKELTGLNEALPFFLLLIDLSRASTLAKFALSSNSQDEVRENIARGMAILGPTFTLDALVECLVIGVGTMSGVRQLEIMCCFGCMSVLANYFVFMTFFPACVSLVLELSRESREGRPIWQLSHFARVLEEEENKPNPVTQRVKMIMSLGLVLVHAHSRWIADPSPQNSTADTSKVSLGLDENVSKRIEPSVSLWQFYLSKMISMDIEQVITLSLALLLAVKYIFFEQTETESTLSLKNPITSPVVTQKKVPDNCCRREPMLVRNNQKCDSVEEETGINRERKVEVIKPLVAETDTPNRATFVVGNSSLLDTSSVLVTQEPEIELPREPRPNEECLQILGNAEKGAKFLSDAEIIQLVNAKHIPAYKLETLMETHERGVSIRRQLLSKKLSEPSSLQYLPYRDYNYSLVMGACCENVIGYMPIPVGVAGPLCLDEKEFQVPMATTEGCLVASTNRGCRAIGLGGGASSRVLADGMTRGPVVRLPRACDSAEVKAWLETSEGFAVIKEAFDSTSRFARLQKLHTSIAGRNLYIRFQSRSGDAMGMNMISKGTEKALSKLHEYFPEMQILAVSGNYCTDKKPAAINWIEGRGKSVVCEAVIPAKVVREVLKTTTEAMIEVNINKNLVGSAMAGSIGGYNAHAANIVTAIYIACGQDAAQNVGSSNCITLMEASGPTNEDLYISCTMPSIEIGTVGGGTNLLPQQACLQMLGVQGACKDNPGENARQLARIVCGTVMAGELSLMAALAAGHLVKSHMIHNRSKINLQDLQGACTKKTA
Description: Inhibition of human HMG-CoA reductase catalytic domain at 20 uM using HMG-CoA as substrate in presence of NADPH by colorimetric method relative to control.

Series [2] deals with Rattus norvegicus. Description: Antihyperlipidemic activity in triton WR-1339 induced Charles Foster rat hyperlipidemia model assessed as inhibition of total cholesterol level in serum at 150 mg/kg, po administered simultaneously with triton WR-1339 after 18 hrs by enzymatic method relative to control. The format is functional.
The test system of series [3] is Rattus norvegicus. Description: Hypolipidemic activity in HFD-induced Charles Foster rat assessed as increase in LCAT activity at 100 mg/kg administered as single dose via oral gavage for 30 days simultaneously with high fat diet by photometric method. Format: functional, organism-based.
Series [4] relates to Rattus norvegicus. Kind of series: Hypolipidemic activity in HFD-induced Charles Foster rat assessed as increase in human I125-LDL binding to rat liver plasma membrane at 100 mg/kg administered as single dose via oral gavage for 30 days simultaneously with high fat diet by minigamma counting. The format is functional, organism-based.
For series [5], the target named is T1, 3-hydroxy-3-methylglutaryl-coenzyme A reductase (Homo sapiens). Description: Inhibition of human HMG-CoA reductase catalytic domain at 100 uM using HMG-CoA as substrate in presence of NADPH by colorimetric method relative to control.
Series [6] concerns Rattus norvegicus. Description: Antihyperlipidemic activity in triton WR-1339 induced Charles Foster rat hyperlipidemia model assessed as increase in HDL-C level in serum at 100 mg/kg, po administered simultaneously with triton WR-1339 after 18 hrs by enzymatic method relative to control. Format: functional.
Series [7] has as its system Rattus norvegicus. Description: Increase in phospholipid level in serum of triton WR-1339 induced Charles Foster rat hyperlipidemia model at 50 mg/kg, po administered simultaneously with triton WR-1339 after 18 hrs by enzymatic method relative to control. The format is functional.
Series [8] relates to Rattus norvegicus. Kind of series: Hypolipidemic activity in HFD-induced Charles Foster rat assessed as increase in serum HDL-TG at 100 mg/kg administered as single dose via oral gavage for 30 days simultaneously with high fat diet. Format: functional, organism-based.
Series [9] is described as follows: Stability of the compound in simulated gastric fluid at 10 uM up to 60 mins by LC-MS/MS analysis.
Series [10] relates to Rattus norvegicus. Description: Hypolipidemic activity in HFD-induced Charles Foster rat chronic hyperlipidemia model assessed as reduction in serum AST level at 100 mg/kg administered via oral gavage for 30 days simultaneously with high fat diet by colorimetric method relative to HFD treated vehicle. The format is functional. Conditions: 720 h.
Series [11] can be described thus: Apparent MRT in Sprague-Dawley rat at 100 mg/kg, po administered as single dose by LC-MS/MS analysis. Format: ADME, organism-based. The note with it: in vivo.
A short description of series [12]: AUC (0 to infinity) in Sprague-Dawley rat at 100 mg/kg, po administered as single dose by LC-MS/MS analysis. Conditions: in vivo. Also noted: dose 100 mg/kg, time infinity, route oral. The format is ADME, organism-based.
Series [13] has as its system Rattus norvegicus. Kind of series: Hypolipidemic activity in HFD-induced Charles Foster rat chronic hyperlipidemia model assessed as reduction in serum ALT level at 100 mg/kg administered via oral gavage for 30 days simultaneously with high fat diet by colorimetric method relative to HFD treated vehicle. Conditions: 720 h. Format: functional.
Series [14] relates to Rattus norvegicus. Description: Hypolipidemic activity in HFD-induced Charles Foster rat assessed as increase in lipolytic activity of LPL in liver at 100 mg/kg administered as single dose via oral gavage for 30 days simultaneously with high fat diet. The format is functional, organism-based.
Series [15] has as its system Rattus norvegicus. Kind of series: Antihyperlipidemic activity in triton WR-1339 induced Charles Foster rat hyperlipidemia model assessed as increase in HDL-C level in serum at 50 mg/kg, po administered simultaneously with triton WR-1339 after 18 hrs by enzymatic method relative to control. The format is functional.
Series [16] has as its system Rattus norvegicus. Kind of series: Antihyperlipidemic activity in triton WR-1339 induced Charles Foster rat hyperlipidemia model assessed as inhibition of phospholipid level in serum at 150 mg/kg, po administered simultaneously with triton WR-1339 after 18 hrs by enzymatic method relative to control. Format: functional.
Series [17] has as its system Rattus norvegicus. Kind of series: Hypolipidemic activity in HFD-induced Charles Foster rat assessed as reduction in serum LDL-TG at 100 mg/kg administered as single dose via oral gavage for 30 days simultaneously with high fat diet. Format: functional, organism-based.
Series [18] has as its target T1, 3-hydroxy-3-methylglutaryl-coenzyme A reductase (Homo sapiens). Description: Inhibition of human HMG-CoA reductase catalytic domain at 10 uM using HMG-CoA as substrate in presence of NADPH by colorimetric method relative to control.
Series [19] concerns Rattus norvegicus. Kind of series: Antihyperlipidemic activity in po dosed triton WR-1339 induced Charles Foster rat hyperlipidemia model assessed as increase in HDL-C level in serum administered simultaneously with triton WR-1339 after 18 hrs by enzymatic method relative to control. Format: functional, organism-based.
Series [20] concerns Rattus norvegicus. Description: Toxicity in HFD-induced Charles Foster rat chronic hyperlipidemia model assessed as food intake at 100 mg/kg administered via oral gavage for 30 days simultaneously with high fat diet (reference value: 9.81 +/- 0.61 g/day). Format: organism-based. The note with it: in vivo, 720 h.
The test system of a further series is Liver. Description: Intrinsic clearance in Sprague-Dawley rat liver microsomes at 10 uM in absence of NADPH after 5 to 90 mins by LC-MS/MS analysis. Format: ADME, microsome.
Series [21] deals with Rattus norvegicus. Description: Antihyperlipidemic activity in po dosed triton WR-1339 induced Charles Foster rat hyperlipidemia model assessed as inhibition of phospholipid level in serum administered simultaneously with triton WR-1339 after 18 hrs by enzymatic method relative to control. The format is functional, organism-based.
Series [22] deals with Rattus norvegicus. Kind of series: Antihyperlipidemic activity in po dosed triton WR-1339 induced Charles Foster rat hyperlipidemia model assessed as inhibition of total cholesterol level in serum administered simultaneously with triton WR-1339 after 18 hrs by enzymatic method relative to control. The format is functional, organism-based.

By inhibition is commonly meant the percentage by which the read-out fell short of the control. As usually defined, the inhibition in vivo is the change of the read-out against control, counted positive when it falls. In general, MRT refers to a mean duration of stay, worked out from the concentration-time curve. For orientation: AUC(0-inf) means the area under the concentration-time curve extrapolated to infinity.

Regarding `COc1ccc(-c2cc3cc(C(c4c[nH]c5ccccc45)c4c[nH]c5ccccc45)cc(C(C)(C)C)c3oc2=O)cc1OC`, the inhibition is 63% in series [1]; 81% in series [5]; 56% in series [18]; “Dose-dependent effect” in the series with Rattus norvegicus [21]; “Dose-dependent effect” in the series on Rattus norvegicus [22]. The inhibition in vivo at 150 mg/kg came out at 33% in the series with Rattus norvegicus [2] and 35% in the series on Rattus norvegicus [16]. For the same compound, the outcome in the series on Rattus norvegicus [3], in the series with Rattus norvegicus [4], in the series on Rattus norvegicus [8], in the series with Rattus norvegicus [14] and in the series on Rattus norvegicus [17] was Active. In addition, the Activity was 23% in the series with Rattus norvegicus [6]; 22% in the series with Rattus norvegicus [7]; 15% in the series on Rattus norvegicus [15]; “Dose-dependent effect” with Rattus norvegicus [19]; 9.63 g/day with Rattus norvegicus [20]. Besides, the Stability result in series [9] is on record as “Stable”. Moreover, the results for the inhibition in vivo at 100 mg/kg in the series on Rattus norvegicus [10] and in the series with Rattus norvegicus [13] were 28% and 26%, respectively. Besides, in [11], the MRT was determined as 4.46 h. The compound further yielded an AUC(0-inf) in [12] of 417 ng·h/mL. Further, the CLH in the series on Liver was found to be 5.8 µL/min/mg.
